Measurements as given in patent publication US11571426B2, “Compositions for preventing or treating lupus” (CHONG KUN DANG PHARMACEUTICAL CORP., priority 2017, dated 2023).
Marks after values point to notes of the source that are not given here. Values belong to the molecule of their own block, whether it stands above or below them.

Assays:
[1] = tested on: CTLA4 (cytotoxic T-lymphocyte-associated protein 4) in the regulatory T cells; test: CTLA4 expression in regulatory T cells (flow cytometry); type: cell-based, mouse; settings: 1000 nM
Method: To identify if the compounds according to the present invention regulate a function of regulatory T cells in immune responses, compounds 255, 280, 374, 416 and 476 were treated, and then an expression level of an immune checkpoint receptor CTLA4 (cytotoxic T-lymphocyte-associated protein 4) in the regulatory T cells was measured by means of flow cytometry.
Specifically, a six-week old C57BL6 male mice were supplied from Central Lab Animal Inc., then acclimated for one week, and then used in an experiment. A spleen was isolated from the mouse, and then treated with collagenase D (Roche, 11088866001), such that splenocytes were isolated therefrom. CD4+CD25− T cells were isolated by means of a CD4+CD25+ regulatory T cell isolation kit (Miltenyi Biotec, 130-091-041), and then CD4+CD25− T cells (at a ratio of 5×10^5 cells/well) were treated with an anti-CD3c/anti-CD28 mAb bead (T cell activation/expansion kit, Miltenyi Biotec, 130-093627) and a mouse recombinant TGF-β2 for six days, such that they were differentiated into iTreg. A test drug was simultaneously treated for six days, during which the cells were differentiated into iTreg. After that, the cells were incubated by means of anti-CD^4/anti-CD25 mAb (eBioscience, 25-0042-82, 17-0251-82) at 4° C. for 20 minutes, and then labeling was performed. […]

[2] = tested on: TNFα secretion in LPS-stimulated human monocyte cell lines (THP-1); test: Suppression of TNFα secretion in LPS-stimulated THP-1 (ELISA); type: cell-based
Method: To identify the efficacy of the inventive compounds on suppressing a TNFα secretion in immune responses, suppression of TNFα production, which was achieved by a treatment with compounds 374, 461, 500, 530 and 532 according to the present invention in LPS-stimulated human monocyte cell lines (THP-1), was quantified by means of an enzyme immuno-assay (ELISA).
Specifically, the THP-1 cell lines (ATCC) were cultured in an RPMI-1640 medium comprising 10% FBS. The cell lines were divided into a 24 well plate at a ratio of 1×10^5 cells per well, then treated with 100 ng/mL PMA (phorbol 12-myristate 13-acetate) for 24 hours, and then differentiated into macrophage. Then, the culture medium was replaced with a new one, then treated with a test drug for 24 hours, and then treated again with 10 ng/mL LPS (E. Coli, O55:B5) for four hours for stimulation. After that, supernatant was taken and used to measure the amount of TNFα secreted from the cells by means of a Human TNFα Instant ELISA kit (eBioscience, BMS223INST) according to a protocol provided by a manufacturer.

NZB/W F1 female mice [3] = test: T cell populations in spleen (FACS) in SLE disease mouse; type: in vivo; settings: positive control 5 mg/kg/day; vs negative control
NZB/W F1 female mice [4] = test: Proteinuria and UP/C in SLE model mouse; type: in vivo; settings: positive control 5 mg/kg/day; 42 weeks old
Method: (§1) 80 NZB/W F1 female mice (four weeks old) were purchased from Jackson Laboratory and maintained in an SPF breeding room with five mice per cage. Their weight and urine protein were measured at 24 weeks after birth (right before administration), and then all the animals except those having too much urine protein were divided into groups as shown in a table 2 below such that the urine protein and weight might be evenly distributed among the groups.
(§2) Then, the mice were administered as described in the table 2 once a day for about 19 weeks from 24 weeks after birth to 42 weeks after birth.
(§3) The fresh urine of mice was collected before and after administration every two weeks, while blood collection was performed before and after administration every four weeks. The serum was prepared by centrifugation of the collected blood and then kept at −70° C.
A urine creatinine concentration was obtained by diluting the urine 100-fold, then measuring the concentration thereof by means of a serum chemistry analyzer (Dri-CHEM 3000 colorimetric analyzer, Fujifilm), and then calibrating the measured value using a dilution factor.

NZB/W F1 female mice [5] = test: Serum cytokine level (Milliplex MAP kit) in SLE disease mouse; type: in vivo; settings: group P, 5 mg/kg/day i.p., n = 13
Method: as §1, §2, §3
To analyze an effect of the inventive pharmaceutical composition on a change in a serum cytokine level in the SLE disease mouse, a level of GM-CSF, IFN-γ, IL-1α, IL-1β, IL-10, IL-12(p70), IL-15, IL-17a, IL-2, IL-4, IL-6, TNF-α, […], IL-22 and IL-23 in serum was measured by means of a Mouse cytokine Milliplex MAP kit (Merck Millipore), wherein the results thereof were shown in a table 3.
Data obtained from groups were compared using a Kruskal-Wallis (†p<0.05) *p<0.05 versus C group (Mann-Whitney U-test)

NZB/W F1 female mice [6] = test: Serum chemistry after long-term administration; type: in vivo, mouse; settings: group P, 5 mg/kg/day i.p.; serum at autopsy
Method: as §1, §2
Data obtained from groups were compared using a Kruskal-Wallis (†p<0.05), *p<0.05 versus C group (Mann-Whitney U-test), ALT: alanine aminotransferase, AST: aspartate aminotransferase, ALP: alkaline phosphatase, TBIL: total bilirubin, TCHOL: total cholesterol, TG: triglyceride, TP: total protein, CPK: creatine phosphokinase)

[7] = on increasing concentration from 100 nM to 300 nM

SMILES: O=C(NO)c1ccc(CN(C(=O)N2CCOCC2)c2cccc(Br)c2)cc1 [Compound 255, N-(3-bromophenyl)-N-(4-(hydroxycarbamoyl)benzyl)morpholine-4-carboxamide]
- cytotoxicity [1]: severe cytotoxicity

SMILES: CCN1CCN(C(=O)N(Cc2ccc(C(=O)NO)cc2)c2cccc(C(F)(F)F)c2)CC1 [Compound 461, 4-ethyl-N-(4-(hydroxycarbamoyl)benzyl)-N-(3-(trifluoromethyl)phenyl)piperazine-1-carboxamide]
- level of TNFα secretion ([2]; at both 100 nM and 300 nM): remarkably decreased

SMILES: O=C(NO)c1ccc(CN(C(=O)N2CCOCC2)c2cccc(CF)c2)cc1 [Compound 500, N-(3-(fluoromethyl)phenyl)-N-(4-(hydroxycarbamoyl)benzyl)morpholine-4-carboxamide]
- level of TNFα secretion ([2]; at both 100 nM and 300 nM): remarkably decreased

SMILES: O=C(NO)c1ccc(CN(C(=O)N2CCOCC2)c2cccc(F)c2)cc1 [Compound 530, N-(3-fluorophenyl)-N-(4-(hydroxycarbamoyl)benzyl)morpholine-4-carboxamide]
- level of TNFα secretion [2, 7]: drastically decreased

SMILES: O=C(NO)c1ccc(CN(C(=O)N2CCOCC2)c2cccc(C(F)(F)F)c2)c(F)c1 [Compound 532, N-(2-fluoro-4-(hydroxycarbamoyl)benzyl)-N-(3-(trifluoromethyl)phenyl)morpholine-4-carboxamide]
- level of TNFα secretion [2, 7]: drastically decreased

- ALP (NZB/W F1 female mice [6]): 207.45 ± 7.21 U/I
- Albumin (NZB/W F1 female mice [6]): 2.52 ± 0.07* g/dl
- Ca (NZB/W F1 female mice [6]): 9.35 ± 0.16 mg/dL
- Glucose (NZB/W F1 female mice [6]): 189.27 ± 12.23 mg/dL
- TBIL (NZB/W F1 female mice [6]): 0.41 ± 0.09 mg/dL
- TCHOL (NZB/W F1 female mice [6]): 162.09 ± 8.97 mg/dL
- TG (NZB/W F1 female mice [6]): 251.82 ± 29.19 mg/dL
- TP (NZB/W F1 female mice [6]): 5.42 ± 0.11* g/dl
SMILES: C[C@H]1C[C@@H]2[C@H]([C@@H](O)C[C@@]3(C)[C@H]2CC[C@]3(O)C(=O)CO)[C@@]2(C)C=CC(=O)C=C12 [Methylprednisolone, reference compound]
- decrease of ratio of CD138+ cells (NZB/W F1 female mice [3]): 16.3%
- incidence rate of severe proteinuria of 300 mg/dl or more (NZB/W F1 female mice [4]): 20%
- IFN-γ in serum (NZB/W F1 female mice [5]): 0.07 ± 0.07 pg/mL
- IL22 in serum (NZB/W F1 female mice [5]): 17.68 ± 4.49 pg/mL
- IL-1α in serum (NZB/W F1 female mice [5]): 666.21 ± 146.22 pg/mL
- IL-1β in serum (NZB/W F1 female mice [5]): 0.65 ± 0.65 pg/mL
- IL-2 in serum (NZB/W F1 female mice [5]): 0.09 ± 0.09 pg/mL
- IL-4 in serum (NZB/W F1 female mice [5]): 1.49 ± 0.06 pg/mL
- IL-6 in serum (NZB/W F1 female mice [5]): 3.36 ± 0.92 pg/mL
- IL-23 in serum (NZB/W F1 female mice [5]): 22.31 ± 17.13 pg/mL
- TGF-β in serum (NZB/W F1 female mice [5]): 66007.78 ± 5207.83 pg/mL
- ALT (NZB/W F1 female mice [6]): 24.09 ± 2.00* U/I
- AST (NZB/W F1 female mice [6]): 52.09 ± 4.25* U/I
